From patent US20250129116A1, “CYCLOPROPANOL AS A BIOORTHOGONAL WARHEAD FOR ELECTROCHEMICALLY CONTROLLED BIOCONJUGATION APPLICATIONS” (UNIVERSITY OF SOUTH CAROLINA, priority 2023, published 2025)
Each block holds one molecule with its values, some of them ahead of it.

Columns and labels:
Vero cells [1] = test: CellTiter Blue (CTB) cell viability assay; type: cell-based; conditions: 24 h
Procedure: The in vitro cytotoxicity test of CPol-choline analog or other chemicals on Vero cells was determined by CellTiter Blue (CTB) cell viability assay (Promega). Briefly, Vero cells were cultured in 96-well plates at a density of 12.5×10^3 cells per well one day prior experiment. On the following day, the media was replaced by fresh 10% FBS DMEM containing the choline analogs at the concentrations of 0.2, 0.4, 0.8, 1, and 5 mM and incubated for 24 h at 37° C. The cells without the compounds were used as controls. NaI and I2 were also tested at the concentrations varied from 0.01 to 10,000 μM. The experiments were performed in quadruplicate. After 24 h of incubation, the media in each well was replaced by prewarmed media containing 10% CTB reagent and incubated for 2 h at 37° C. and 5% CO2. The medium containing CTB without cells was used as a negative control. Fluorescence intensity was then measured at 560/590 nm (Ex/Em) using SpectraMax M2 Multi-Mode microplate reader (Molecular Devices) to indicate cell viability.

Hela cells = test: Metabolic incorporation of CPol-choline, lipidomic experiments and LC-MS; type: cell-based; conditions: 5 mM, 24 h
Procedure: (§1) Three million cells (Vero, HeLa, or NIH-3T3) were seeded into a 10-cm cell culture dish and allowed attachment for 24 h in a complete medium (DMEM with 10% FBS) in a CO2 incubator. When cells reached 70-80% confluency, choline analog (PCPol-Cho or ECPol-Cho) at a final concentration of 5 mM was added into cells and co-cultured for another 24 h. The adhered cells were washed with 5 mL ice-cold DPBS (Dulbecco's Phosphate-Buffered Saline, CORNING), and were scratched into ice-cold PBS (5 mL), pooled in a centrifuge tube, and centrifuged at 1,000 rpm for 5 min at room temperature. The supernatant was then aspirated off and the lipids were extracted from the resultant pellet using the modified Bligh Dyer method. Briefly, the cell pellet was treated with a mixture of chloroform and methanol (1 mL of a 1:2 v/v solution), vortexed for 1 min, followed by addition of chloroform (0.5 mL) and 1 M NaCl (0.5 mL), and again vortexed for 1 min. Phase separation was achieved by centrifuging the mixture at 3,220 g at 4° C. for 30 min. The lower lipid-enriched organic layer was separated and dried using nitrogen at room temperature. For all LC-MS/MS analyses, the dried lipids were dissolved in a mixture of chloroform and methanol (200 μL of a 1:1 v/v solution). For all control experiments, the procedure described above was followed without administration of any choline derivatives.
(§2) Choline stands as the predominant head group in phospholipids which are the principal components of all cellular membranes. […] (FIG. 5A). The metabolic incorporation efficiency of CPol-choline was evaluated through lipidomic experiments (FIG. 15A) and LC-MS (FIG. 15B).

NIH-3T3 cells = test: as above; type: cell-based; conditions: 5 mM, 24 h
Procedure: as §1, §2

Vero cells [2] = test: as above; type: cell-based; conditions: 5 mM, 24 h
Procedure: as §1, §2

Vero cells [3] = test: Electrochemically assisted cell labeling, FTSCA fluorescence; type: cell-based; conditions: CPol+NaI+Echem group: 5 mM CPol-choline, NaI 100 μM, 0.7 V, 50 μM FTSCA, plate reader
Procedure: Vero cells were cultured in a 100-mm cell culture dish and allowed attachment overnight in a complete medium (DMEM with 10% FBS). When cells reached 60-70% confluency, CPol-choline analog at a final concentration of 5 mM was added into Vero cells and co-cultured for 24 h. The labeled Vero cells were harvested into 5 mL Dulbecco's Phosphate-Buffered Saline (DPBS 1×, CORNING). The cell numbers were counted using a hemocytometer. The cell concentration at 6×10^6 cells was used in the experiment. Subsequently, the Vero cell suspension was treated with NaI (100 μM) and low cell potential (0.7 V) under divided H-cell for 10 min. […] For the fluorescence imaging, the cells in a 24-well plate were fixed with 70% ethanol at −20° C. for 10 min, washed with DPBS three times, and then reacted with 50 μM FTSCA for 1 h at room temperature. After removing the unbound FTSCA, the cells were imaged by a fluorescence microscope (Olympus IX81, Shinjuku-ku, Tokyo, Japan). […] After washing with DPBS, the plate was read using a plate reader (Tecan Infinite M200 microplate reader) with an excitation wavelength of 491 nm and emission cutoff at 520 nm. […]
The intensity of this fluorescence was quantified using a plate reader and visualized using fluorescence microscopy (FIG. 6A). […]

[4] = molecular target: bovine serum albumin (BSA) (Bos taurus, UniProt P02769); test: Electrochemically promoted bioconjugation, MALDI-TOF MS; type: biochemical; conditions: NaX (X=I or Br), 0.8 V or 1.2 V, phosphate buffer 0.1 M pH 7.0
Procedure: (§3) Mass spectra were generated with a MALDI-TOF mass spectrometer (rapifleX MALDI Tissuetyper from BRUKER) equipped with a solid-state smart beam and operated in a linear delayed extraction positive ion mode. The samples of conjugated peptide were concentrated using IMCStips (1 mL, IMCS company) and eluted with 70% acetonitrile/0.1% trifluoracetic acid (TFA) following the manufacturer protocol. Of note, the samples of conjugated proteins and viruses were denatured by incubating with guanidinium chloride (8 M) for 5 min at RT, followed by the removal of salts and elution using IMCStips. The resultant samples were spotted on a MALDI plate. These spots were analyzed by MALDI-TOF MS spectrometer with the matrix (Vsample: Vmatrix=1:1). Matrix of sinapic acid in 50% acetonitrile/0.1% TFA was used for protein measurements, and the matrix of a-Cyano-4-hydroxycinnamic acid in 50% acetonitrile/0.1% TFA was used for peptide measurements.
(§4) To further access the compatibility of biomolecules and various CPol derivatives within the electrochemical bioconjugation process, a range of biomolecules including peptides, proteins, and TMV, along with different CPol derivatives, were subjected to the NaI or NaBr redox catalyst and a low cell potential of 0.8 V or 1.2 V individually (FIG. 4A). Electrochemical bioconjugation was employed for labeling angiotensin I, which is a peptide hormone responsible for vasoconstriction and evaluated in blood pressure. […] However, when modifying angiotensin I with NaI at a voltage of 0.8V, certain side reactions may occur. […] Thus, we conducted a preliminary reaction involving bivalirudin or lysozyme, compound 1, and the resulting Br-substituted ketone without the application of electrochemical conditions (FIGS. 11-12).
(§5) Subsequently, the electrochemical bioconjugation approach was evaluated on lysozyme, a 14 kDa cationic protein. […] Additionally, the electrochemical bioconjugation on bovine serum albumin (BSA) was also evaluated. […] Besides, the conjugated biomolecule was conjugated with biotin-oxyamine under weak acidic conditions (m/z=18063 in FIG. 4F), which can be used in further cell labeling or protein proteomic analysis.

lysozyme = lysozyme (Gallus gallus, UniProt P00698); test: as above; type: biochemical; conditions: NaBr, constant voltage 1.2 V, phosphate buffer 0.1 M pH 7.0
Procedure: as §3, §4, §5

[5] = system: wild-type tobacco mosaic virus (wt-TMV); test: as above; type: biochemical
Procedure: To purify wild-type plant virus tobacco mosaic virus (TMV), frozen TMV leaves were crushed and blended. Approximately 3 volumes of phosphate buffer were added to the crushed leaves with an addition of 0.2-0.3% 2-mercaptoethanol. The leaves were blended for 2 min at a low setting and then switched to the highest setting for an additional 3 min. The blended plant sap was filtered through two layers of cheesecloth and then flow through was centrifuged at 10500 rpm (Sorvall SLA 1500) at 4° C. for 20 min. The resulting supernatant was then pooled together and mixed with n-butanol/chloroform at a ratio of 2:1:1 (plant sap/n-butanol/chloroform). The homogenate was stirred for 30 min on ice and then centrifuged at 6000 rpm (SLA 4000) for 10 min at 4° C. The upper aqueous layer was transferred to a beaker, and the virus was precipitated by adding 0.2 M NaCl and 8% (wt/vol) PEG-8000. The mixture was stirred on ice for 60 min and centrifuged at 12000 rpm (Sorvall SLA1500) for 20 min. The white precipitant was then resuspended with 10 mM K phos buffer (pH 7.8). The solution was centrifuged at 9,500 rpm for 15 min at 4° C. to remove excess PEG. The supernatant was transferred to ultracentrifuge tubes (Beckman 50.2 Ti) and the virus was pelleted at 42,000 rpm at 4° C. for 3 h. The virus pellet was resuspended in 100 mM K phos buffer (pH 7.8) overnight at 4° C. UV absorbance was measured at 260 and 280 nm wavelengths to determine the concentration of the virus. […] The purified virus solutions were stored at 4° C.
Mass spectra were generated with a MALDI-TOF mass spectrometer (rapifleX MALDI Tissuetyper from BRUKER) equipped with a solid-state smart beam and operated in a linear delayed extraction positive ion mode. […] These spots were analyzed by MALDI-TOF MS spectrometer with the matrix (Vsample: Vmatrix=1:1). […]
Subsequently, the electrochemical bioconjugation approach was evaluated on lysozyme, a 14 kDa cationic protein. […] Additionally, the electrochemical bioconjugation on bovine serum albumin (BSA) was also evaluated. […]

angiotensin I = molecular target: T1, angiotensin I (Homo sapiens, UniProt P01019); test: Electrochemically promoted bioconjugation, MALDI-TOF MS and LC-MS; type: biochemical; conditions: NaBr, constant voltage 1.2 V
T1 construct: labeling angiotensin I, which is a peptide hormone responsible for vasoconstriction
Procedure: as §3, with “Matrix of sinapic acid in 50% acetonitrile/0.1% TFA was used for protein measurements, and the matrix of a-Cyano-4-hydroxycinnamic acid in 50% acetonitrile/0.1% TFA was used for peptide measurements.” left out
(§6) To further access the compatibility of biomolecules and various CPol derivatives within the electrochemical bioconjugation process, a range of biomolecules including peptides, proteins, and TMV, along with different CPol derivatives, were subjected to the NaI or NaBr redox catalyst and a low cell potential of 0.8 V or 1.2 V individually (FIG. 4A). Electrochemical bioconjugation was employed for labeling angiotensin I, which is a peptide hormone responsible for vasoconstriction and evaluated in blood pressure. […]

bivalirudin = test: as above; type: biochemical; conditions: NaBr, constant voltage 1.2 V, batch reaction
Procedure: as §3, with “Matrix of sinapic acid in 50% acetonitrile/0.1% TFA was used for protein measurements, and the matrix of a-Cyano-4-hydroxycinnamic acid in 50% acetonitrile/0.1% TFA was used for peptide measurements.” left out
as §6

lysozyme, sequence (P00698 19-147): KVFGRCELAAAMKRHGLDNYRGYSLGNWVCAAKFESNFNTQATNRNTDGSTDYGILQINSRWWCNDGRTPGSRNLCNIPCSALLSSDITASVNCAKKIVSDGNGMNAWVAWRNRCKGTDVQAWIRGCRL
bovine serum albumin (BSA), sequence (P02769 25-607): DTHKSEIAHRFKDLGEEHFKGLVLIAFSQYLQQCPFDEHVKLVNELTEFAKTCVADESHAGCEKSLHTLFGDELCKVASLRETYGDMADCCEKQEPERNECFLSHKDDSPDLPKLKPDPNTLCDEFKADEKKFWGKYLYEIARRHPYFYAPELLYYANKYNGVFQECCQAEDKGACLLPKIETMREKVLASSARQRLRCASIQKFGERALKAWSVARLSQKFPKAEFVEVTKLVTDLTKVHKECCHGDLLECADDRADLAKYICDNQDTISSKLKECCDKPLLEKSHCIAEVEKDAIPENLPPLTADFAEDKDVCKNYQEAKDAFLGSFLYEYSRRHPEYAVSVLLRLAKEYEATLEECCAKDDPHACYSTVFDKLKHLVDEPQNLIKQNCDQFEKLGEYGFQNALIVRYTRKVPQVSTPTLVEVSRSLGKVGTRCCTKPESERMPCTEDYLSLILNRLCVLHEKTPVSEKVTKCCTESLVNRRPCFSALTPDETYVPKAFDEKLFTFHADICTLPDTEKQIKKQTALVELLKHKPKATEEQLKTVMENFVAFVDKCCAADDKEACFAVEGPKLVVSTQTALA

Structure (SMILES): Br.C[N+](C)(CCO)CCCC1(O)CC1 [CPol-choline analog]
- cytotoxicity on Vero cells (Vero cells [1]; choline analog 0.2-5 mM): no cytotoxicity was observed
- metabolic incorporation into cells (Hela cells): successfully incorporated
- metabolic incorporation into cells (NIH-3T3 cells): successfully incorporated
- metabolic incorporation into cells (Vero cells [2]): successfully incorporated
- intracellular fluorescence intensity after labeling with FTSCA (Vero cells [3]): strongest fluorescent intensity

Structure (SMILES): OC1(c2ccccc2)CC1 [Formula I-1, Phenylcyclopropanol]
- conjugation to BSA [4]: efficiently conjugated
- conjugation to lysozyme (lysozyme): efficiently conjugated
- conjugation to wt-TMV ([5]; CPol derivative 10 eq., NaI, potential of 1.2 V): modified TMV peak ([M+132]^+) was found
- conjugation to wt-TMV ([5]; identical electrochemical conditions (1.2 V) without NaI): no reaction occurred
- labeling of angiotensin I (angiotensin I): successful labeling
- modification of bivalirudin (bivalirudin): effectively modified

Structure (SMILES): CCCCCC1(O)CC1 [Formula I-4, Pentylcyclopropanol]
- conjugation to BSA [4]: efficiently conjugated
- conjugation to lysozyme (lysozyme): efficiently conjugated
- conjugation to wt-TMV ([5]; NaBr, constant voltage 1.2 V): successfully modified

- conjugation to lysozyme (lysozyme): efficiently conjugated
Structure (SMILES): OC1(c2ccc(C(F)(F)F)cc2)CC1 [Formula I-7, 1-(4-(trifluoromethyl)phenyl)cyclopropan-1-ol]

Structure (SMILES): [I-].[Na+] [NaI, sodium iodide]
- cytotoxicity on Vero cells (Vero cells [1]; NaI 0.01 to 10,000 μM): safely co-cultured
